Results as given in the supplement of paper PMC10307832.

Columns and labels:
Experiment in all cases: relative viability (nuclei count vs DMSO), 5 days (fraction); higher = more cells survive
[1] = compound: Cc1nc(NC(=O)N2CCC[C@H]2C(N)=O)sc1-c1ccnc(C(C)(C)C(F)(F)F)c1 [Alpelisib] + C[C@]1(O)C[C@@H](c2nc(-c3ccc4ccc(-c5ccccc5)nc4c3)c3c(N)nccn32)C1 [Linsitinib] (partner 1 µM)
How it was run: (§1)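 A single step with final 0.05% Triton X-100, 1% formaldehyde and 1 ug/ml Hoechst fixed the cells and stained nuclei 5 days after treatment. Lung cancer cell lines in 1536-well plates had been treated by pin tool the day after seeding with one drug alone or a fixed anchor-drug dose plus five library-drug doses (not always all listed) in √10 steps, and nuclei were counted on 4× images. Relative viability is the ratio of nuclei in treated wells to nuclei in vehicle wells, taken as the median of duplicate plates.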

[2] = compound: Cc1nc(NC(=O)N2CCC[C@H]2C(N)=O)sc1-c1ccnc(C(C)(C)C(F)(F)F)c1 [Alpelisib] + COc1cc2c(Oc3ccc(NC(=O)C4(C(=O)Nc5ccc(F)cc5)CC4)cc3F)ccnc2cc1OCCCN1CCOCC1 [Foretinib] (partner 0.25 µM)
How it was run: as §1

[3] = compound: COc1cccc2cc(-c3nc([C@H]4CC[C@H](C(=O)O)CC4)n4ncnc(N)c34)[nH]c12 [OSI-027] + O=C(c1cc(Cc2n[nH]c(=O)c3ccccc23)ccc1F)N1CCN(C(=O)C2CC2)CC1 [Olaparib] (partner 8 µM)
How it was run: as §1

[4] = compound: Cc1nc(NC(=O)N2CCC[C@H]2C(N)=O)sc1-c1ccnc(C(C)(C)C(F)(F)F)c1 [Alpelisib] + NC(=O)Nc1cc(-c2cccc(F)c2)sc1C(=O)N[C@H]1CCCNC1 [AZD7762] (partner 0.2 µM)
How it was run: as §1

Row | Cell Line | relative viability ([1]; first compound 0.04 µM) | relative viability ([1]; first compound 0.1265 µM) | relative viability ([1]; first compound 0.4 µM) | relative viability ([1]; first compound 1.265 µM) | relative viability ([1]; first compound 4 µM) | relative viability ([2]; first compound 0.04 µM) | relative viability ([2]; first compound 0.1265 µM) | relative viability ([2]; first compound 0.4 µM) | relative viability ([2]; first compound 1.265 µM) | relative viability ([2]; first compound 4 µM) | relative viability ([3]; first compound 0.01 µM) | relative viability ([3]; first compound 0.03162 µM) | relative viability ([3]; first compound 0.1 µM) | relative viability ([3]; first compound 0.3162 µM) | relative viability ([3]; first compound 1 µM) | relative viability ([4]; first compound 0.04 µM) | relative viability ([4]; first compound 0.1265 µM) | relative viability ([4]; first compound 0.4 µM) | relative viability ([4]; first compound 1.265 µM) | relative viability ([4]; first compound 4 µM)
1 | NCI-H358 | 0.683 | 0.657 | 0.605 | 0.334 | 0.397 | 0.622 | 0.674 | 0.684 | 0.567 | 0.353 | 0.708 | 0.546 | 0.579 | 0.572 | 0.422 | 0.506 | 0.386 | 0.497 | 0.301 | 0.295
2 | NCI-H441 | 0.734 | 0.403 | 0.698 | 0.524 | 0.492 | 0.891 | 0.844 | 0.786 | 0.724 | 0.566 | 0.649 | 0.58 | 0.548 | 0.494 | 0.3 | 1.28 | 1.14 | 1.35 | 1.22 | 1.07
3 | NCI-H460 | 0.716 | 0.722 | 0.516 | 0.261 | 0.284 | 0.998 | 1.02 | 1.08 | 0.929 | 0.795 | 0.663 | 0.369 | 0.41 | 0.448 | 0.239 | 0.542 | 0.638 | 0.746 | 0.513 | 0.404
4 | NCI-H596 | 1.05 | 1.03 | 0.867 | 0.555 | 0.477 | 0.769 | 0.677 | 0.731 | 0.457 | 0.431 | 0.743 | 0.688 | 0.651 | 0.684 | 0.612 | 0.895 | 1.05 | 1.03 | 0.725 | 0.472
5 | NCI-H647 | 1.01 | 1.29 | 1.13 | 1.12 | 1.12 | 1.12 | 1.14 | 1.33 | 0.837 | 1.24 | 0.681 | 0.613 | 0.56 | 0.463 | 0.398 | 0.586 | 0.322 | 0.688 | 0.393 | 0.325
6 | NCI-H650 | 0.819 | 0.706 | 0.894 | 0.587 | 0.807 | 1.03 | 0.988 | 1.01 | 0.839 | 0.822 | 0.406 | 0.38 | 0.364 | 0.337 | 0.219 | 1.08 | 0.769 | 0.931 | 0.773 | 0.837
7 | NCI-H727 | 0.292 | 0.306 | 0.388 | 0.27 | 0.177 | 0.897 | 0.772 | 0.771 | 0.645 | 0.676 | 0.675 | 0.688 | 0.671 | 0.752 | 0.556 | 0.472 | 0.567 | 0.625 | 0.673 | 0.555
8 | NCI-H838 | 0.969 | 1.02 | 0.983 | 0.807 | 0.956 | 0.94 | 0.961 | 1.01 | 0.892 | 0.871 | 0.791 | 0.856 | 0.705 | 0.492 | 0.437 | 0.916 | 0.946 | 1.02 | 0.775 | 0.86
9 | NCI-H1355 | 0.762 | 0.837 | 0.828 | 0.774 | 0.722 | 0.951 | 0.926 | 1.04 | 0.851 | 0.77 | 0.702 | 0.667 | 0.663 | 0.521 | 0.342 | 0.792 | 0.78 | 0.704 | 0.636 | 0.553
10 | NCI-H1395 | 1.12 | 1.17 | 1.42 | 0.82 | 1.18 | 0.889 | 1.04 | 1.01 | 0.897 | 0.988 | 0.525 | 0.412 | 0.48 | 0.376 | 0.362 | 0.438 | 0.379 | 0.404 | 0.393 | 0.392
11 | NCI-H1437 | 1.06 | 1.02 | 1.05 | 0.827 | 0.844 | 1.23 | 1.33 | 1.33 | 1.27 | 1.31 | 0.646 | 0.664 | 0.63 | 0.644 | 0.53 | 1.12 | 1.18 | 1.12 | 1.02 | 1.06
12 | NCI-H1651 | 0.953 | 0.932 | 0.963 | 0.932 | 0.956 | 0.683 | 0.853 | 0.791 | 0.571 | 0.741 | 0.199 | 0.173 | 0.178 | 0.189 | 0.186 | 0.458 | 0.442 | 0.535 | 0.536 | 0.359
13 | NCI-H1666 | 0.805 | 0.705 | 0.772 | 1.01 | 0.793 | 1 | 1.02 | 1.05 | 0.801 | 0.74 | 0.777 | 0.67 | 0.744 | 0.77 | 0.71 | 0.902 | 0.762 | 1.03 | 0.865 | 0.711
14 | NCI-H1703 | 0.899 | 0.631 | 0.661 | 0.438 | 0.354 | 0.295 | 0.362 | 0.381 | 0.271 | 0.303 | 0.424 | 0.552 | 0.316 | 0.304 | 0.19 | 0.0965 | 0.129 | 0.125 | 0.103 | 0.116
15 | NCI-H1734 | 0.814 | 0.885 | 0.875 | 0.71 | 0.489 | 0.749 | – | 0.786 | 0.486 | 0.356 | 0.656 | 0.597 | 0.599 | 0.566 | 0.401 | 0.604 | 0.556 | 0.584 | 0.397 | 0.209
16 | NCI-H1755 | 1.01 | 0.941 | 1.03 | 0.978 | 0.764 | 0.95 | 0.924 | 0.962 | 0.785 | 0.731 | 0.874 | 0.849 | 0.883 | 0.761 | 0.486 | 0.378 | 0.544 | 0.465 | 0.326 | 0.362
